In patent US11787802B2, “Dihydrobenzimidazolones for medical treatment” (C4 Therapeutics, Inc., priority 2017, dated 2023):
pKd: −log10 of the molar value.

The compounds below were run against hCereblon(M1-L442)_hDDB1(M1-H1140) (Homo sapiens (Human), UniProt Q96SW2) (assay: Fluorescence direct binding protocol (tryptophan fluorescence titration)). Settings: fluorescence titration at 20° C., excited at 280 nm, recorded at 340 nm; protein 5.0 E−8 M; assay buffer 50 mM Hepes 7.4 200 mM NaCl; read-out: Fluorescence h-Cereblon_DDB1 Mean Kd_EQ.
Chain of hCereblon(M1-L442)_hDDB1(M1-H1140) (Q96SW2 whole entry): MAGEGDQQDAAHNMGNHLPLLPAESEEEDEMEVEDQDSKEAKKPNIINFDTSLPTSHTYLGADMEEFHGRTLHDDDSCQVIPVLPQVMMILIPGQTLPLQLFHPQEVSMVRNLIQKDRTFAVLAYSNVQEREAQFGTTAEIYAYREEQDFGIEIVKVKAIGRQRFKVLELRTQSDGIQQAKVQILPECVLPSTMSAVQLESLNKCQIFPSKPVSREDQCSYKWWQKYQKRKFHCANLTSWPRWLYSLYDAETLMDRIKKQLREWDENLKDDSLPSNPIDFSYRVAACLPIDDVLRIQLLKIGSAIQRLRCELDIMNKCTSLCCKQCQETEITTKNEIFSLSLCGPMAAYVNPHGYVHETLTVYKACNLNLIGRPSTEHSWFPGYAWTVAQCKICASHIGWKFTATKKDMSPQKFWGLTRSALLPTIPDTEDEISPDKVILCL
Chain of hCereblon(M1-L442)_hDDB1(M1-H1140) (Q16531 whole entry partner): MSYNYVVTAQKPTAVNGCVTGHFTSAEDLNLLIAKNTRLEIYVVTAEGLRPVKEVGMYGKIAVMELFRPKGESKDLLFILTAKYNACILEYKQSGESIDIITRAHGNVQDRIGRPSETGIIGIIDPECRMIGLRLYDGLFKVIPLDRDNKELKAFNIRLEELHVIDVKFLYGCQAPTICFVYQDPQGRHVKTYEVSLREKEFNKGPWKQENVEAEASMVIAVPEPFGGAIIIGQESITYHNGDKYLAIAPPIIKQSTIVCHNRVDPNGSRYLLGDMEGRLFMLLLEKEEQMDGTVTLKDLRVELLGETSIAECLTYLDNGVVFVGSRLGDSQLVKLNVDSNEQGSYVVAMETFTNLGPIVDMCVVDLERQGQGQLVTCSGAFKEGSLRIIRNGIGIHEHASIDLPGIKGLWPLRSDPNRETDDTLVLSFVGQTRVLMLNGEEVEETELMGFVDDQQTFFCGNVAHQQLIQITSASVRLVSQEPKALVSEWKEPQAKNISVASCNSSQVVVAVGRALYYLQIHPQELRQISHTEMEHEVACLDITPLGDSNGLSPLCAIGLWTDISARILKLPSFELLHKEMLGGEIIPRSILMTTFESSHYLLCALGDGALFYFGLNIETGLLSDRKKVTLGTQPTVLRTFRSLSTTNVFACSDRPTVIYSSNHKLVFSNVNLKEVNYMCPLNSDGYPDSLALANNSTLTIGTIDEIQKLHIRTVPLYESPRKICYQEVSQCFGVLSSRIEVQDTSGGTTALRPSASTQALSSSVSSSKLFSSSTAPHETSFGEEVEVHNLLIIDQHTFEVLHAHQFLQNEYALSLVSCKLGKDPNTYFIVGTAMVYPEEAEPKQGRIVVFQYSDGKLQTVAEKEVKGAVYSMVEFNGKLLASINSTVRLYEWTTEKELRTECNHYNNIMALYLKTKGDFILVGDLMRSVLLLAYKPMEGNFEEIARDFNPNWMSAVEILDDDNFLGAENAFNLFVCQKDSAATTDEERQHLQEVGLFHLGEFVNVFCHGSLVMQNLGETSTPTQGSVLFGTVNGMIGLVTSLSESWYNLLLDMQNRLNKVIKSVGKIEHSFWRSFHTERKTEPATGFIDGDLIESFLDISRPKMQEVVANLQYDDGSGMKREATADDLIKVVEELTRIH
How it was run: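 At 20° C., protein at constant concentration was titrated with ligand in DMSO over at least 12 steps, exciting tryptophan at 280 nm and reading emission at 340 nm. Intensities were corrected for dilution and filter effect, and Kd was fitted assuming 1:1 binding.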

Row | Compound | pKd
1 | CC(C)(C)OC(=O)Nc1ccc2c(c1)CCN2Cc1ccc2[nH]c(=O)[nH]c2c1 [Example 148, tert-Butyl (1-((2-oxo-2,3-dihydro-1H-benzo[d]imidazol-5-yl)methyl)indolin-5-yl)carbamate] | 7.72
2 | Nc1ccc2c(c1)CCN2Cc1ccc2[nH]c(=O)[nH]c2c1 [Example 149, 5-((5-Aminoindolin-1-yl)methyl)-1,3-dihydro-2H-benzo[d]imidazol-2-one] | 7.77
3 | COC(=O)c1ccccc1C(=O)Nc1ccc2[nH]c(=O)[nH]c2c1 [Example 151, Methyl 2-((2-oxo-2,3-dihydro-1H-benzo[d]imidazol-5-yl)carbamoyl)benzoate] | 7.28
4 | COC(=O)c1ccc(Nc2ccc3[nH]c(=O)[nH]c3c2)nc1 [Example 153, Methyl 6-((2-oxo-2,3-dihydro-1H-benzo[d]imidazol-5-yl)amino)nicotinate] | 7.80
5 | CNC(=O)c1ccc(Oc2ccc3[nH]c(=O)[nH]c3c2)cc1 [Example 156, N-Methyl-4-((2-oxo-2,3-dihydro-1H-benzo[d]imidazol-5-yl)oxy)benzamide] | 7.66
6 | Cc1sc2c(c1C)C(c1ccc(Cl)cc1)=N[C@@H](CC(=O)NCCOCCOCCNC(=O)c1ccc3c(c1)nc(-c1ccnc4ccccc14)n3-c1ccc3[nH]c(=O)[nH]c3c1)c1nnc(C)n1-2 [Example C, (S)—N-(2-(2-(2-(2-(4-(4-Chlorophenyl)-2,3,9-trimethyl-6H-thieno[3,2-f][1,2,4]triazolo[4,3-a][1,4]diazepin-6-yl)acetamido)ethoxy)ethoxy)ethyl)-2′-oxo-2-(quinolin-4-yl)-2′,3′-dihydro-1′H-[1,5′-bibenzo[d]imidazole]-5-carboxamide] | 7.72
7 | Cc1sc2c(c1C)C(c1ccc(Cl)cc1)=N[C@@H](CC(=O)NCCCCCNC(=O)c1cccc3c1CCN3C(=O)Nc1ccc3[nH]c(=O)[nH]c3c1)c1nnc(C)n1-2 [Example D, N4-[5-[[2-[(9S)-7-(4-Chlorophenyl)-4,5,13-trimethyl-3-thia-1,8,11,12-tetrazatricyclo[8.3.0.02,6]trideca-2(6),4,7,10,12-pentaen-9-yl]acetyl]amino]pentyl]-N1-(2-oxo-1,3-dihydrobenzimidazol-5-yl)indoline-1,4-dicarboxamide] | 8.15

The next lines start with the values.

Row | pKd | Compound
8 | 6.47 | CNC(=O)c1ccccc1NC(=O)c1ccc2[nH]c(=O)[nH]c2c1 [Example 147, N-(2-(Methylcarbamoyl)phenyl)-2-oxo-2,3-dihydro-1H-benzo[d]imidazole-5-carboxamide]
9 | 8.52 | CC(=O)Nc1ccc2c(c1)CCN2Cc1ccc2[nH]c(=O)[nH]c2c1 [Example 150, N-(1-((2-Oxo-2,3-dihydro-1H-benzo[d]imidazol-5-yl)methyl)indolin-5-yl)acetamide]
10 | 7.68 | O=c1[nH]c2ccc(NC3CCN(Cc4ccccc4)CC3)cc2[nH]1 [Example 152, 5-((1-Benzylpiperidin-4-yl)amino)-1,3-dihydro-2H-benzo[d]imidazol-2-one]
11 | 7.77 | O=c1[nH]c2ccc(OCc3ccccc3)cc2[nH]1 [Example 154, 5-(Benzyloxy)-1,3-dihydro-2H-benzo[d]imidazol-2-one]
12 | 7.26 | CCc1nc2cc(C(=O)NCCCCCNC(=O)C[C@@H]3N=C(c4ccc(Cl)cc4)c4c(sc(C)c4C)-n4c(C)nnc43)ccc2n1-c1ccc2[nH]c(=O)[nH]c2c1 [Example A, N-(5-(2-((6S)-4-(4-chlorophenyl)-2,3,9-trimethyl-6H-thieno[3,2-f][1,2,4]triazolo[4,3-a][1,4]diazepin-6-yl)acetamido)pentyl)-2-ethyl-2′-oxo-2′,3′-dihydro-1′H-[1,5′-bibenzo[d]imidazole]-5-carboxamide]
13 | 7.29 | CCc1nc2cc(C(=O)NCCOCCOCCNC(=O)C[C@@H]3N=C(c4ccc(Cl)cc4)c4c(sc(C)c4C)-n4c(C)nnc43)ccc2n1-c1ccc2[nH]c(=O)[nH]c2c1 [Example B, (S)—N-(2-(2-(2-(2-(4-(4-Chlorophenyl)-2,3,9-trimethyl-6H-thieno[3,2-f][1,2,4]triazolo[4,3-a][1,4]diazepin-6-yl)acetamido)ethoxy)ethoxy)ethyl)-2-ethyl-2′-oxo-2′,3′-dihydro-1′H-[1,5′-bibenzo[d]imidazole]-5-carboxamide]
